According to the supplement of paper PMC10307832:

How the values were obtained:
Assay in all cases: relative viability (nuclei count vs DMSO), 5 days (fraction); higher = more cells survive
[1] = compound: CN1CCN(CC1)C2=CC(=C(C=C2)NC3=NC(=C(S3)C(=O)C4=C(C=CC=C4Cl)Cl)N)OC [XMD14-99] + CS(=O)(=O)CCNCc1ccc(-c2ccc3ncnc(Nc4ccc(OCc5cccc(F)c5)c(Cl)c4)c3c2)o1 [Lapatinib] (partner 2 µM)
Summary of the method: (§1)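 Lung cancer cell lines in 1536-well plates were dosed by pin tool the day after seeding, either with one drug alone or with a fixed anchor-drug dose plus five library-drug doses (not always all listed) in √10 steps. After 5 days, cells were fixed and their nuclei stained in one step (final 0.05% Triton X-100, 1% formaldehyde, 1 ug/ml Hoechst), then counted on 4× images. Relative viability is the nuclei count in treated wells divided by that in vehicle wells. Values are medians of duplicate plates.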

[2] = compound: CN1CCN(CC1)C2=CC(=C(C=C2)NC3=NC(=C(S3)C(=O)C4=C(C=CC=C4Cl)Cl)N)OC [XMD14-99] + CS(=O)(=O)N1CCN(Cc2cc3nc(-c4cccc5[nH]ncc45)nc(N4CCOCC4)c3s2)CC1 [Pictilisib] (partner 1 µM)
Summary of the method: as §1

[3] = compound: N[C@@H]1CCCN(c2c(/C=C3\SC(=O)NC3=O)cccc2-c2ccccc2)C1 [AZD1208] + CS(=O)(=O)CCNCc1ccc(-c2ccc3ncnc(Nc4ccc(OCc5cccc(F)c5)c(Cl)c4)c3c2)o1 [Lapatinib] (partner 2 µM)
Summary of the method: as §1

[4] = compound: N[C@@H]1CCCN(c2c(/C=C3\SC(=O)NC3=O)cccc2-c2ccccc2)C1 [AZD1208] + Cc1nc(NC(=O)N2CCC[C@H]2C(N)=O)sc1-c1ccnc(C(C)(C)C(F)(F)F)c1 [Alpelisib] (partner 2 µM)
Summary of the method: as §1

Cell Line	relative viability ([1]; first compound 0.08 µM)	relative viability ([1]; first compound 0.8 µM)	relative viability ([1]; first compound 2.53 µM)	relative viability ([1]; first compound 8 µM)	relative viability ([2]; first compound 0.08 µM)	relative viability ([2]; first compound 0.8 µM)	relative viability ([2]; first compound 2.53 µM)	relative viability ([2]; first compound 8 µM)	relative viability ([3]; first compound 0.08 µM)	relative viability ([3]; first compound 0.253 µM)	relative viability ([3]; first compound 0.8 µM)	relative viability ([3]; first compound 2.53 µM)	relative viability ([3]; first compound 8 µM)	relative viability ([4]; first compound 0.08 µM)	relative viability ([4]; first compound 0.253 µM)	relative viability ([4]; first compound 0.8 µM)	relative viability ([4]; first compound 2.53 µM)	relative viability ([4]; first compound 8 µM)
HOP-62	1.22	1.06	0.946	0.819	0.917	0.842	0.808	0.646	1.14	1.05	0.985	0.875	0.889	1.04	0.919	0.82	0.764	0.896
CAL-12T	0.603	0.549	0.545	0.547	0.397	0.453	0.334	0.287	0.634	0.771	0.6	0.695	0.588	1.12	1.22	1.13	1.1	0.851
NCI-H596	1.12	1.05	1.17	0.938	0.399	0.413	0.35	0.396	1.05	1.1	0.967	0.984	0.835	0.387	0.573	0.351	0.376	0.353
NCI-H1755	1.08	1.01	0.955	0.827	0.404	0.401	0.426	0.295	1.05	1.09	1.01	0.978	0.848	0.933	1.02	0.858	0.859	0.741
NCI-H2085	0.76	0.794	0.735	0.693	0.454	0.446	0.445	0.482	0.768	0.862	0.7	0.687	0.726	0.921	0.979	0.885	1.02	1.03
NCI-H2023	0.737	0.989	0.828	0.372	0.238	0.247	0.26	0.157	0.757	0.903	0.68	0.668	0.635	0.512	0.448	0.396	0.461	0.45
